Assay results from patent publication US20020182232A9, “Cosmetic composition comprising at least one ingredient chosen from compounds of formula (I) and salts thereof, use thereof as colouring agent, and novel compounds of formulae (IIa), (IIIa), (IVa), (Va), and (VIa), and salts thereof” (priority 2000, published 2002).

Columns and labels:
[1] = Photochemical stability (SUNTEST CPS, colour difference before/after); format: physicochemical; conditions: compacted pure compound, SUNTEST CPS one hour, 765 watts/m^2; UV-unstable when ΔE >6
Protocol: 4/Photochemical Stability
The UV stability was carried out by leaving the compacted pure test compound (100 bar, FAP crucible) in the SUNTEST CPS for one hour. The SUNTEST CPS is an apparatus sold by Heraeus. […] The apparatus was used at 765 watts/m^2 and emits UVA, UVB, and visible light over a range of 300 to 800 nm.
The difference in colour ΔE before and after the SUNTEST was measured by colorimetry.
The compound was considered as UV-unstable when the ΔE was >6.

[2] = Bleeding: ability to dissolve in a dispersion medium (optical density of supernatant); format: physicochemical; conditions: supernatant absorbance 400 to 800 nm, bleeds when O.D. >1.5; for Bleeding in water, O.D.: 1% by weight compound in water + 1% Polysorbate 20; for Bleeding in oil (triglycerides), O.D.: 1% by weight compound in caprylic/capric acid triglycerides
Protocol: 3/Bleeding: Ability to Dissolve in a Dispersion Medium
A dispersion was prepared comprising 1% by weight of test compound in an oil (caprylic/capric acid triglycerides).
A dispersion was also prepared comprising 1% by weight of test compound in a mixture of water and 1% by weight of wetting agent (Polysorbate 20).
The mixture was stirred for 10 minutes using a magnetic bar. 10 g of dispersion were weighed out and placed in centrifuge tubes. This material was centrifuged for 30 minutes at 3000 rpm.
The supernatant liquid was taken up and the optical density was determined by measuring the absorbence on a spectrophotometer from 400 to 800 nm, at a speed of 240 nm/min.
The compound was considered to bleed when the optical density was greater than 1.5.

| Compound | Photochemical stability ΔE [1] | Bleeding in water, O.D. [2] | Bleeding in oil (triglycerides), O.D. [2] | melting point [°C] |
| --- | --- | --- | --- | --- |
| O=C1c2ccccc2C(=O)c2c1oc1c2ccc2ccc(O)cc21 [2-Hydroxy-dinaphtho(1,2-b:2′,3′-d)furan-7,12-dione] | ΔE = 1.32 | O.D. = 0.23 | – | – |
| COc1ccc2ccc3oc4c(c3c2c1)C(=O)c1ccccc1C4=O [2-methoxydinaphtho-(2,1-b:2′,3′-d)furan-8,13-dione] | ΔE = 0.28 | O.D. = 0.30 | – | – |
| COc1ccc2c(ccc3oc4c(c32)C(=O)c2ccccc2C4=O)c1 [3-methoxydinaphtho-(2,1-b:2′,3′-d)furan-8,13-dione] | ΔE = 0.81 | O.D. = 0.04 | O.D. = 0.88 | 292.1 |
| CCCCCCOc1cc2c3c(oc2c2ccccc12)C(=O)c1ccccc1C3=O [5-hexyloxydinaphtho-(1,2-b:2′,3′-d)furan-7,12-dione] | ΔE = 0.91 | O.D. = 0.29 | – | 173.9 |
| CC(C)Oc1cc2c3c(oc2c2ccccc12)C(=O)c1ccccc1C3=O [5-isopropyloxydinaphtho-(1,2-b:2′,3′-d)furan-7,12-dione] | ΔE = 0.81 | O.D. = 0.03 | – | – |
| O=C(O)c1nn(-c2ccc(S(=O)(=O)O)cc2)c(O)c1N=Nc1ccc(S(=O)(=O)O)cc1 [FD&C Yellow No. 5, reference compound] | ΔE = 6.63 | O.D. = 0.08 | – | – |
| O=S(=O)([O-])c1ccc(N=Nc2c(O)ccc3cc(S(=O)(=O)[O-])ccc23)cc1.[Na+].[Na+] [FD&C Yellow No. 6, reference compound] | ΔE = 10.06 | O.D. = 0.58 | – | – |

Further lines, results first:

| Photochemical stability ΔE [1] | Bleeding in water, O.D. [2] | Bleeding in oil (triglycerides), O.D. [2] | melting point [°C] | Compound |
| --- | --- | --- | --- | --- |
| ΔE = 2.61 | O.D. = 0.03 | O.D. = 0.92 | – | O=C1c2ccccc2C(=O)c2c1oc1ccc3cc(Br)ccc3c21 [3-bromodinaphtho(2,1-b:-2′,3′-d)furan-8,13-dione] |
| ΔE = 1.36 | O.D. = 0.02 | – | – | O=C1c2ccccc2C(=O)c2c1oc1c2cc(Cl)c2ccccc21 [5-chlorodinaphtho-(1,2-b:2′,3′-d)furan-7,12-dione] |
| ΔE = 0.24 | O.D. = 0.27 | – | – | CCOc1cc2c3c(oc2c2ccccc12)C(=O)c1ccccc1C3=O [5-ethoxydinaphtho(1,2-b:2′,3′-d)furan-7,12-dione] |
| ΔE = 0.10 | O.D. = 0.16 | – | – | O=C1c2ccccc2C(=O)c2c1oc1cc(O)c3ccccc3c21 [5-hydroxydinaphtho(2,1-b:2′,3′-d)furan-8,13-dione] |
| ΔE = 3.91 | O.D. = 0.13 | – | – | O=C1c2ccccc2C(=O)c2c1oc1c2ccc2ccccc21 [Dinaphtho(1,2-b:2′,3′-d)furan-7,12-dione, dinaphtho(1,2-b:2′,3′-d)furan-7,12-dione] |
| ΔE = 0.23 | O.D. = 0.01 | – | – | O=C1c2ccccc2C(=O)c2c1oc1ccc3ccccc3c21 [Dinaphtho(2,1-b:2′,3′-d)furan-8,13-dione, dinaphtho(2,1-b:2′,3′-d)furan-8,13-dione] |
